Experimental findings from patent US9346823B2, “Detection and use of low molecular-weight modulators of the cold-menthol receptor TRPM8” (BASF SE, priority 2008, dated 2016) are described below.

What is called EC50 is the concentration at which the effect is half-maximal. Read a high EC50 as lower potency in that assay.

T1 sequence (Q7Z2W7 whole entry): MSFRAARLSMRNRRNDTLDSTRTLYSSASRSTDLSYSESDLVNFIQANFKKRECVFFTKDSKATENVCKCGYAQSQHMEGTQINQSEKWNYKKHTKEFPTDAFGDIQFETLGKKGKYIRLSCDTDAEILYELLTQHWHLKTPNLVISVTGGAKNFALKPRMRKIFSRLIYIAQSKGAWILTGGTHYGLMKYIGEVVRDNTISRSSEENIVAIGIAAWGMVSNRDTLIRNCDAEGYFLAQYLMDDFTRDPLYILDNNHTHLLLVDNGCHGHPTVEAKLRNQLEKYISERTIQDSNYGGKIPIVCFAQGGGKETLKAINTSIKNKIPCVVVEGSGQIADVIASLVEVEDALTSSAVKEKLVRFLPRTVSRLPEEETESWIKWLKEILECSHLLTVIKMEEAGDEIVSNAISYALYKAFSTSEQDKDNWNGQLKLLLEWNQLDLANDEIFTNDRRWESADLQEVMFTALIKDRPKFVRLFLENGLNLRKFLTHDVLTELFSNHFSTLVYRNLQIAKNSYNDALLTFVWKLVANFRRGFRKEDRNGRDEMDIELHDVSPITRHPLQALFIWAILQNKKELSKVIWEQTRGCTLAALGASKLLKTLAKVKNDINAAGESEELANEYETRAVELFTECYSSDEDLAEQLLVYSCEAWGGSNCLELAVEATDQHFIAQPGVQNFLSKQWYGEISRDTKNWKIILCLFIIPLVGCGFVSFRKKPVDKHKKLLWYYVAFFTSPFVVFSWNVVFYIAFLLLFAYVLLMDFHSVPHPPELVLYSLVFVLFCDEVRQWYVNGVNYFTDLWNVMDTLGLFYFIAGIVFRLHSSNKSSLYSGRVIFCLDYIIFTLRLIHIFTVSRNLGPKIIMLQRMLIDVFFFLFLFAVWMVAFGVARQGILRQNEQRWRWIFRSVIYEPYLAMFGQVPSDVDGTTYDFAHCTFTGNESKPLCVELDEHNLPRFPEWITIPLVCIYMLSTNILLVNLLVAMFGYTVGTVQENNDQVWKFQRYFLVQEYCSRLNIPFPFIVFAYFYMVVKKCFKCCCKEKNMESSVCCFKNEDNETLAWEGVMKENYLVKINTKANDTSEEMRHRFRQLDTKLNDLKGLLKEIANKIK

The test addresses T1, human receptor TRPM8 (Homo sapiens, UniProt Q7Z2W7).
T1 construct: expressed in transfected cells
As to the kind of experiment: Assay on TRPM8 modulators: Ca2+-sensitive dye (Fluo-4) fluorescence in HEK293 cells stably transfected with human TRPM8. To be noted: tetracycline-induced, Fluo-4AM, agonist mode, triplicate, test concentrations 0.1-200 μM. In kind it is cell-based. The protocol:
In this connection, “standard conditions” is understood as meaning an activity test carried out with HEK293 cells which have been transformed with human TRPM8 and loaded with calcium-sensitive dye (such as e.g. Fluo-4AM, i.e. fluo-4-acetoxymethyl ester), subsequent addition of the test compound and detection of the color change, the experimental procedure taking place at 37° C.; as described e.g. example 3 below, or in Behrendt et al. (2004) loc. cit.).
As test cell system, HEK293 cell line stably transfected with the human TRPM8 DNA (cf. above plasmid pind-M8) are produced. Preference here is given to HEK293 which offers the option, via the introduced plasmid, of inducing the TRPM8 expression by means of tetracycline.
The agonization or antagonization of the receptor can be quantified by means of a Ca^2+-sensitive dye (e.g. FURA, Fluo-4 etc.). On their own, agonists bring about an increase in the Ca^2+ signal; antagonists bring about, in the presence of e.g. menthol, a reduction in the Ca^2+ signal (in each case detected via the dye Fluo-4, which has different fluorescent properties as the result of Ca^2+ ). • a) Test Procedure:
Firstly, a fresh culture of transformed HEK cells is prepared in a manner known per se in cell culture flasks. The test cells HEK293-TRPM8 are detached from the cell culture flasks by means of trypsin and 40 000 cells/well are sown out with 100 μl of medium in 96-well plates (Greiner # 655948 poly-D-lysine-coated). To induce the receptor TRPM8, tetracycline is added to the growth medium (DMEM/HG, 10% FCS tetracycline-free, 4 mM L-glutamine, 15 μg/ml blasticidin, 100 μg/ml hygromycin B, 1 μg/ml tetracycline). On the following day, the cells are loaded with Fluo-4AM dye and the test is carried out. For this, the procedure is as follows: • addition of in each case 100 μl/well of dye solution Ca-4 kit (RB 141, Molecular Devices) to in each case 100 μl of medium (DMEM/HG, 10% FCS tetracycline-free, 4 mM L-glutamine, 15 μg/ml blasticidin, 100 μg/ml hygromycin B, 1 μg/ml tetracycline) • incubation in the hatching cabinet, 30 minutes/37° C./5% CO2, 30 minutes/RT • preparation of the test substances (various concentrations in 200 μl of HBSS buffer), and also of positive controls (various concentrations of menthol, icilin and ionomycin in 200 μl of HBSS buffer) and negative controls (only 200 μl of HBSS buffer) • addition of the test substances in amounts of 50 μl/well and measurement of the change in fluorescence (e.g. in the assay instrument FLIPR, Molecular Devices or NovoStar, BMG) at 485 nm excitation, 520 nm emission, and evaluation of the effectiveness of the various substances/concentrations and determination of the EC50 values.
The test substances are used in the assay in triplicate in concentrations of 0.1-200 μM. Normally, the compounds are kept ready in DMSO solutions and are diluted down to a maximum DMSO concentration of 2% for the assay. • b) Test Result
Take `CC(NCc1ccc(OC(F)F)cc1)c1ccc2c(c1)CCCC2` (stereo not shown) [Compound 13]: the midpoint of the response, the EC50, lay at 10 µM.

Consider `C=C1C2(C(=O)NCCc3ccccc3)CCC(C2)C1(C)C` (stereo not shown) [Compound 19], for which a half-maximal effect (EC50) was put at 100 µM.

Take `CCCCCCNC(=O)N(Cc1ccccc1)c1ccccc1` [Compound 7]: it took 4 µM to reach a half-maximal effect (EC50).

Compound `CC1(C)CC(=O)C2=C(C1)N1CCc3ccccc3C1CC21SCCS1` (stereo not shown) [Compound 2] returned an EC50 of 2 µM. Compared with the last compound, the EC50 is about 2-fold lower.

`COc1cnc(-c2ccccn2)nc1NC(C)C` [Compound 3] yielded an EC50 of 2 µM.

As for `C=CCn1c(C)cc(C(=O)CSc2nc(C)cc(C(F)(F)F)c2C#N)c1C` [Compound 16], the EC50 was 25 µM.

In the case of `COc1ccc(C(=O)Nc2sc3c(c2CN(C)C)CCCC3)cc1` [Compound 12], the EC50 amounted to 10 µM.

In turn, `CC1(C)CC2CC(C)(CN2/C=N/c2sc3c(c2C#N)CCCCC3)C1` (stereo not shown) [Compound 10] returned an EC50 of 10 µM.

For `CCOC(=O)C1CCN(Cc2cc(C(C)C)c(O)c(C(C)C)c2)CC1` [Compound 14], the midpoint of the response, the EC50, lay at 20 µM. This EC50 lies about 2-fold higher than the previous one.

Compound `O=C(Nc1ccc([N+](=O)[O-])cc1)Nc1ccccc1N1CCCCC1` [Compound 6] came in with an EC50 of 3.5 µM.

Regarding `O=C1CN(C(=O)c2ccccc2)c2ccc(C(F)(F)F)cc2N1` [Compound 9], the EC50 worked out at 10 µM.

With `Cc1ccc2c(C)c(C(=O)N(Cc3ccco3)C3CCS(=O)(=O)C3)oc2c1` (stereo not shown) [Compound 15], the concentration for a half-maximal effect (EC50) amounted to 20 µM.

With `CC1OC(=O)C2=C1N1CCc3ccccc3C1CC21SCCS1` (stereo not shown) [Compound 1], the EC50 came out at 0.4 µM.

`O=C(/C=C/c1ccc2c(c1)OCO2)N(c1ccccn1)C1CCCCC1` [Compound 5] gave an EC50 of 2.5 µM.

In turn, `Cn1nc(C(F)(F)F)cc1Oc1cc(C2OCCO2)cc(Cl)n1` [Compound 17] returned an EC50 of 50 µM. This EC50 is about 20-fold higher than that of the compound before.

In turn, `O=C(COc1ccc2c(c1)OCO2)N(c1ccccc1)C1CCCCC1` [Compound 4] had an EC50 of 2.5 µM.

`O=C(Nc1cccc2ccccc12)N(Cc1ccccc1)c1ccccc1` [Compound 11] gave an EC50 of 10 µM.

`CC1=C/C(=N\NC(=O)CCN2CCN(c3ccccc3)CC2)CC1` [Compound 18]: it took 100 µM to reach a half-maximal effect (EC50).

In the case of `Cc1[nH]c(SC(C)C(=O)Nc2cccc(C#N)c2)nc1Cc1ccccc1` (stereo not shown) [Compound 8], a half-maximal effect (EC50) was put at 5 µM.
